Assay results reported in patent US20060040980A1, “Ionophores as cancer chemotherapeutic agents” (priority 2004, published 2006).
Entries after “also recorded” stand apart in the source; their conditions may differ. Like-named read-outs stand apart in the source and are kept apart here.

Tests used:
[1] = system: immortalized endothelial cell line (EAhy.926); test: Endothelial cell tube formation assay on Matrigel; assay type: cell-based; settings: EAhy.926 on Matrigel
Method: An immortalized endothelial cell line (EAhy.926) was plated on Matrigel at a density of 15,000 per well in the absence or presence of the drugs indicated overnight at 37° C. Branch formation was used as a measure of tube formation. Each value was determined by averaging the number of branches per field (250×) in 3 representative fields. The final bFGF concentration was 5 ng/mL.

[2] = system: Raji cells (a human B-cell Burkitt lymphoma line); test: MTS cell viability assay, Raji; assay type: cell-based; settings: for IC50: Homo sapiens, Raji (B-cell), MTS assay, n = 3, read-out: IC50 (μM) towards human tumor cell lines; for Effect of added copper, zinc or iron on CQ's cytotoxic effects / Interaction of clioquinol and DHA in killing cells (isobologram analysis): Raji cells; for Effect of added copper, zinc or iron on CQ's cytotoxic effects: ZnCl2, CuCl2, FeCl2 premixed with 5 μM clioquinol, 72 h; for Interaction of clioquinol and DHA in killing cells (isobologram analysis): ratio of IC50s
Method: (§1) Cell viability was determined with the MTS assay. IC50 was calculated using nonlinear regression analysis (Prism 3.0). […] Data (n=3) are presented as means±S.E.M.
(§2) The CellTiter 96® Aqueous ONE Solution (Promega) was used to assess cellular viability via reduction of (3-(4,5-dimethylthiazol-2-yl)-5-(3carboxymethoxyphenyl)-2-(4-sulfophenyl)-2H-tetrazolium (MTS). An ELISA-based apoptosis assay kit was from Roche, and an anti-poly (ADP-ribose) polymerase (PARP) monoclonal antibody was from BIOMOL Research Laboratories Inc. Nude mice were from Animal Technology Limited. All other reagents were analytic grade.
(§3) DHL-4 cells were provided by Dr. Linda Boxer (Stanford University), A2780 cells by Dr. Stephen Howell (University of California, San Diego), SiHa cells by Dr. Doris Benbrook (University of Oklahoma). All other cells were obtained from the ATCC. Cells were routinely grown in a […], in an environment containing 5% CO2, and passed every three days. Cell viability was analyzed using the MTS assay. […] The MTS assay was performed using the protocol provided by the manufacturer. In short, 20 μL of MTS solution was added to each well, and cells were incubated at 37° C. for 1-2 h. The optical density (490 nm) of each well was then determined.
(§4) IC50 values were calculated with nonlinear regression analysis using Graphpad Prism 3.0 (Graphpad Software, Inc.).
(§5) The cells studied included human B-cell lymphoma lines (DHL-4, Raji), breast (MCF-7, MDA-MB231), ovarian (A2780), cervical (SiHa), bladder (T24), and pancreatic (Mpanc-96) cancer cells.
as §1
Inventors reasoned that the cytotoxic effects of a chelator would be overcome by an excess of the chelated metal. Inventors added increasing concentrations of copper, zinc or iron to cells treated with CQ. […] Cell viability was expressed as a percentage of untreated cells.

Raji cells = test: Apoptosis ELISA (cytoplasmic histone-associated DNA fragments) and PARP/caspase-3 Western blot; assay type: cell-based, human; settings: 24 h, PARP cleavage
Method: Western blot analysis was performed as previously described (57-59). Briefly, cells were lysed in a lysis buffer containing 50 MM Tris, pH 7.4, 50 mM NaCl, 0.5% NP-40, 50 mM NaF, 1 mM Na3VO4, 1 mM phenylmethylsulfonyl fluoride, 25 μg/ml leupeptin, and 25 μg/ml aprotinin. The lysates were centrifuged at 15,004×g for 15 min and the supernatants were collected for protein concentration determination, SDS-PAGE, and western blot analysis with specific antibodies, as described.
An ELISA-based kit (Roche Diagnostics Coup., Ind.) was used to quantitatively measure cytoplasmic histone-associated DNA fragments (mononucleosomes and oligonucleosomes), a measure of apoptosis, according to the manufacturer's instructions.
Cellular extracts were analyzed using an ELISA-based assay (Roche Diagnostics Corp., Indianapolis, Ind.) that quantifies release into the cytoplasm of histone-associated DNA fragments (mononucleosomes and oligonucleosomes), a measure of apoptosis. In addition, the lysates were subjected to SDS-PAGE followed by Western blotting using an anti-poly (ADP-ribose) polymerase (PARP) monoclonal antibody (clone C-2-10) to detect PARP cleavage, a sign of caspase-dependent apoptosis.
Cell lysates were prepared and apoptosis determined using an ELISA that quantified cytoplasmic DNA-histone complexes. […]

mouse brains = settings: cited from earlier work
A2780 (ovarian) = test: MTS cell viability assay, A2780; assay type: cell-based, human
From the text: as §2, §3, §4, §5

animals = settings: high doses; cited from earlier work
albumin = albumin (Homo sapiens, UniProt P02768); settings: read-out: Affinity of binding to albumin; cited from earlier work
albumin, sequence (P02768 25-609): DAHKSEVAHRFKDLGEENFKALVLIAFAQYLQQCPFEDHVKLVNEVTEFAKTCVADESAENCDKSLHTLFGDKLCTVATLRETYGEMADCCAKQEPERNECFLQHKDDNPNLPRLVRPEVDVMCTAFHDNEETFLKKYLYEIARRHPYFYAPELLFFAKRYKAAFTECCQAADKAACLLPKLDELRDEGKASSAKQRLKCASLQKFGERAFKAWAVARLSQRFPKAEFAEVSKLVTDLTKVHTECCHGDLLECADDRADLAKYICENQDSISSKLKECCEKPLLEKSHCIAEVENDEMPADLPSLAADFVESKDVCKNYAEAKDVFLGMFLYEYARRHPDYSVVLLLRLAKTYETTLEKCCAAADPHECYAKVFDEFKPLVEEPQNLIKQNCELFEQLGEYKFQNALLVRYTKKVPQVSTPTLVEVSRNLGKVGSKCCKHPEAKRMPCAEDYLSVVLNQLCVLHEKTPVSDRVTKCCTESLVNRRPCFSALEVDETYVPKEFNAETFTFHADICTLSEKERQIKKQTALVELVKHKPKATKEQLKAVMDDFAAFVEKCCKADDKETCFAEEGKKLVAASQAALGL

SiHa (cervical) = test: MTS cell viability assay, SiHa; assay type: cell-based; settings: Homo sapiens, read-out: IC50 (μM) of clioquinol towards human tumor cell lines, 72 h, n = 3
From the text: as §2, §3, §4, §5

[3] = system: patients with Alzheimer's disease; settings: cited from earlier work
[4] = system: Raji (a human B-cell lymphoma line) xenograft
Method: Xenograft model Nude mice (Harlan Sprague-Dawley, Indianapolis, Ind.) were maintained in accordance with the Institutional Animal Care and Use Committee (IACUC) procedures and guidelines. 10×10^6 Raji (a human B-cell lymphoma line), or 5×10^6 A2780 (a human ovarian cancer line) cells were suspended in 100 μL of phosphate buffered saline, mixed with 50% Matrigel, and implanted subcutaneously into the flanks of 5-week-old female nude mice. […] The tumor volume was assessed three times a week using calipers to measure the perpendicular diameters of the tumor, and calculated with the formula; v=l×(w)^2 (0.5), where v=tumor volume, l=length of tumor and w=width of donor (60). Animals' weights were also measured 3 times a week.
Nude mice were injected subcutaneously with Raji cells.

T24 (Bladder) = test: MTS cell viability assay, T24; assay type: cell-based; settings: Homo sapiens, read-out: IC50 (μM) of clioquinol towards human tumor cell lines, 72 h, n = 3
From the text: as §2, §3, §4, §5

tumor cells [5] = test: Lipid peroxidation (thiobarbituric acid reactive substances) in CQ-treated tumor cells; assay type: cell-based; settings: CQ treatment of tumor cells
A2780 cells = test: Cellular zinc level measurement with FluoZin-3; assay type: cell-based, human; settings: A2780, 30 μM clioquinol, 1 h, increasing zinc
Method: A sensitive water-soluble salt form of a fluorescent zinc indicator was used for cellular zinc level measurement following the manufacture's protocol (FluoZin-3, Molecular Probes). A2780 (10,000/well) and Raji cells (30,000/well) were plated in a 96-well plate.
FluoZinc-3 (final concentration of 3 μM) was added and the cells were incubated for another 30 min at 37° C. After the incubation, cells were washed twice with fresh medium to remove any dye nonspecifically associated with the cell surface. Additional medium was added and the cells were incubated for a further 30 min before fluorescence measurements were commenced. The fluorescence was measured at 485nm/535nm (excitation/emission), using a Wallac 1420 Multilabel Counter (Perkin Elmer).
The zinc ionophore pyrithione was used as a positive control.

[6] = cited from earlier work
[7] = system: A2780 (a human ovarian cancer line) xenograft; test: A2780 xenograft in nude mice; assay type: in vivo; settings: 28 mg/kg, 5 days a week
Method: Control animals were given Intralipid, without Cloquinol. […] Animals' weights were also measured 3 times a week.
In a separate experiment, nude mice were injected with the ovarian cancer cell line, A2780 and treated similarly. Mice were killed when the tumor reached 10% of their body weight.
Tumor size was calculated and expressed as […] .

human cancer cell lines = test: Viability of eight human cancer cell lines (overall statement); assay type: cell-based
From the text: as §2, §3, §4, §5

MCF-7 (breast) = test: MTS cell viability assay, MCF-7; assay type: cell-based; settings: Homo sapiens, MCF7, read-out: IC50 (μM) of clioquinol towards human tumor cell lines, 72 h, n = 3
From the text: as §2, §3, §4, §5

[8] = biological target: purified bovine erythrocyte SOD 1 (Bos taurus, UniProt P00442); test: SOD1 activity, xanthine oxidase/cytochrome C method, purified enzyme; settings: purified bovine erythrocyte SOD 1, in vitro
purified bovine erythrocyte SOD 1, sequence (P00442 whole entry): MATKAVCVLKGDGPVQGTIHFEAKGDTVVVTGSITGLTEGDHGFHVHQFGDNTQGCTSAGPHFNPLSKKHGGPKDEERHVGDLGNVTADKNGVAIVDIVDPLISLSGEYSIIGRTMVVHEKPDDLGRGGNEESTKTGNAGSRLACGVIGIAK

DHL-4 (B-cell) = test: MTS cell viability assay, DHL-4; assay type: cell-based; settings: Homo sapiens, read-out: IC50 (μM) of clioquinol towards human tumor cell lines, 72 h, n = 3
From the text: as §2, §3, §4, §5

[9] = system: mouse model of Alzheimer's disease; settings: cited from earlier work
MDA-MB-231 (breast) = test: MTS cell viability assay, MDA-MB-231; assay type: cell-based; settings: Homo sapiens, read-out: IC50 (μM) of clioquinol towards human tumor cell lines, 72 h, n = 3
From the text: as §2, §3, §4, §5

M-panc-96 (pancreas) = test: MTS cell viability assay, M-panc-96; assay type: cell-based; settings: Homo sapiens, MPANC96, read-out: IC50 (μM) of clioquinol towards human tumor cell lines, 72 h, n = 3
From the text: as §2, §3, §4, §5

tumor cells [10] = test: Modulation of CQ-mediated cell killing by anti-oxidants and zinc chelators; assay type: cell-based; settings: added to CQ-treated cells
From the text: Inventors then studied the effects of the addition of zinc chelators. Since Ca^++ has a lower affinity for EDTA than Zn^++, the addition of […] it.

[11] = oral, 750 mg a day, Alzheimer's trial

Molecule: [O-][n+]1ccccc1S [pyrithione, 2-mercaptopyridine 1-oxide]
- Anti-angiogenic effect (cell survival and tube branches) [1]: anti-angiogenic effect

Molecule: CC/C=C\C/C=C\C/C=C\C/C=C\C/C=C\C/C=C\CCC(=O)O [DHA, docosahexaenoic acid]
- IC50 [2]: 85 µM

Molecule: Oc1c(I)cc(Cl)c2cccnc12 [clioquinol, 5-chloro-7-iodo-8-hydroxyquinoline]
- Induction of apoptosis (Raji cells): induces apoptosis
- Accumulation of vitamin B12 in the brain (mouse brains): decreased
- Exposure time sufficient for full cytotoxicity (A2780 (ovarian); A2780 cells, time-course studies): 8 h
- IC50 (A2780 (ovarian); Homo sapiens, read-out: IC50 (μM) of clioquinol towards human tumor cell lines, A2780 (ovarian), 72 h, n = 3): 14.2 µM
- Neurotoxicity in animal studies (animals): can induce neurotoxicity
- Kd (albumin): 0.01 µM
- IC50 (SiHa (cervical)): 38.8 µM
- Anti-angiogenic effect (cell survival and tube branches) [1]: anti-angiogenic effect
- Endothelial cell tube formation ([1]; bFGF 5 ng/mL, overnight): inhibited in a dose dependent manner
- Neurotoxicity in patients ([3]; Australia, 36 patients, 250, 500, 750 mg a day over nine months with vitamin B12): No neurotoxicity
- Toxicity in patients ([3]; Sweden, 10 or 80 mg a day for 21 days): without experiencing toxicity
- Tumor growth ([4]; Raji xenograft, 28 mg/kg ip, 5 days a week): inhibition of tumor growth
- Signs of toxicity ([4]; mouse, in vivo, ip, 28 mg/kg): No animals exhibited signs of toxicity
- IC50 (T24 (Bladder)): 20 µM
- Lipid peroxidation (thiobarbituric acid reactive substances) (tumor cells [5]): does not lead to increased lipid peroxidation
- Zinc ionophore activity (fluorescent zinc indicator) (A2780 cells): is a zinc ionophore
- Zinc ionophore activity (fluorescent zinc indicator) (A2780 cells; listed as CQ): is indeed an ionophore
- Absorbed from the skin ([6]; man, in 12 hours): 40%
- Excreted in the urine after absorption from the GI tract ([6]; man, in 72 hours): 25%
- Serum half-life ([6]; man): about 12 hours
- Trough blood levels [6, 11]: about 25 μM
- Trough, steady-state blood levels [6, 11]: 7.6 µg/mL
- Trough blood levels ([6]; oral, 750 mg a day, Alzheimer's trial, listed as CQ): 25 µM
- Survival of treated mice [7]: prolonged survival
- Tumor growth [7]: inhibited tumor growth
- IC50 (human cancer cell lines; eight human cancer cell lines, 72 h, read-out: IC50s, range over all cell lines tested): 10 to 40 µM
- IC50s in killing human cancer cells (in words) (human cancer cell lines; human cancer cells): low micromolar range
- IC50 [2]: 12.4 µM
- Effect of added copper, zinc or iron on CQ's cytotoxic effects [2]: potentiation
- Effect of added copper, zinc or iron on CQ's cytotoxic effects ([2]; listed as CQ): potentiated
- Interaction of clioquinol and DHA in killing cells (isobologram analysis) [2]: potentiate DHA; also recorded: synergy
- Interaction of clioquinol and DHA in killing cells (isobologram analysis) ([2]; listed as CQ): synergism
- IC50 (MCF-7 (breast)): 29.7 µM
- Effect on purified SOD 1 [8]: inhibition
- IC50 (DHL-4 (B-cell)): 6.7 µM
- Dose administered safely ([9]; mice): 30 mg/kg/day
- Sedimentable amyloid in the brains ([9]; mouse model of Alzheimer's disease): decrease
- IC50 (MDA-MB-231 (breast)): 19.9 µM
- IC50 (M-panc-96 (pancreas)): 23.6 µM

Molecule: O=C([O-])CN(CCN(CC(=O)[O-])CC(=O)[O-])CC(=O)[O-].[Ca+2].[Na+].[Na+] [CaEDTA]
- Effect of zinc chelators on CQ-mediated cell killing (tumor cells [10]): decrease in CQ-mediated cell killing

Molecule: vitamin E
- Protection of cells against CQ by anti-oxidants (tumor cells [10]): do not protect

Molecule: Cc1c(C)c2c(c(C)c1O)CCC(C)(C(=O)O)O2 (stereo not drawn) [Trolox]
- Protection of cells against CQ by anti-oxidants (tumor cells [10]): do not protect

Molecule: O=C(O)CN(CCN(CC(=O)O)CC(=O)O)CC(=O)O.[Zn] [ZnEDTA]
- Effect of zinc chelators on CQ-mediated cell killing (tumor cells [10]): not
